{
  "source": "patent US6416780B1",
  "about": "(Galen (Chemicals) Limited, priority 1997, dated 2002)",
  "key": {"[1]": {"conditions": "for sink conditions in 0.9% saline: rings of Examples 1 and 2, 250 ml, 37° C.; for In vitro release into 0.9% saline (as total testosterone): core loading 10% w/w testosterone", "procedure": "The rings were tested in vitro at a constant temperature of 37° C. for their release characteristics in a sufficient volume (250 ml) of each of the following media: 0.9% (w/v) saline and 1.0% (w/v) aqueous benzalkonium chloride (BKC).\nThus, each ring was suspended by a thread in an individual enclosed flask containing the dissolution medium, maintained at a constant temperature of 37° C. The contents of the flask were gently agitated in order to prevent the occurrence of a hydrostatic layer on the surface of the ring. After 24 hours (±30 minutes), the ring was removed and suspended in a flask of fresh dissolution medium of identical volume."}, "[2]": {"conditions": "Example 2 rings; 1.0% BKC versus 0.9% saline"}, "[3]": {"experiment": "In vitro release from Example 5 testosterone-17-propionate ring into 0.9% saline over 26 days", "format": "physicochemical", "conditions": "for In Vitro Release of Testosterone-17-propionate, Release Rate: Example 5 ring core length 90 mm"}, "[4]": {"conditions": "human female, cited from earlier work"}, "[5]": {"experiment": "In vitro release from Example 6 pessary bullets into 0.9% saline", "conditions": "following an initial burst phase"}, "[6]": {"experiment": "In vitro release from Example 3 rings into 0.9% saline over 30 days", "format": "physicochemical", "conditions": "30 day monitoring period"}},
  "note": "Read-outs that look alike come from different tables or passages of the source.",
  "data": [
    {"smiles": "CC(=O)O[C@H]1CC[C@H]2[C@@H]3CCC4=CC(=O)CC[C@]4(C)[C@H]3CC[C@]12C", "note": "[testosterone-17-acetate]", "values": [
      {"measurement": "sink conditions in 0.9% saline", "setting": "[1]", "value": "‘non-sink conditions’ exist in saline"},
      {"measurement": "in vitro release rates into BKC compared with saline", "setting": "[2]", "value": "considerably higher than those into saline"}
    ]},
    {"smiles": "CCC(=O)O[C@H]1CC[C@H]2[C@@H]3CCC4=CC(=O)CC[C@]4(C)[C@H]3CC[C@]12C", "note": "[testosterone-17-propionate]", "values": [
      {"measurement": "In Vitro Release of Testosterone-17-propionate, Release Rate", "setting": "[3]; 0.9% saline, day 2", "value": 171, "unit": "µg/day"},
      {"measurement": "In Vitro Release of Testosterone-17-propionate, Release Rate", "setting": "[3]; 0.9% saline, day 3", "value": 328, "unit": "µg/day"},
      {"measurement": "In Vitro Release of Testosterone-17-propionate, Release Rate", "setting": "[3]; 0.9% saline, day 4", "value": 337, "unit": "µg/day"},
      {"measurement": "In Vitro Release of Testosterone-17-propionate, Release Rate", "setting": "[3]; 0.9% saline, day 5", "value": 465, "unit": "µg/day"},
      {"measurement": "In Vitro Release of Testosterone-17-propionate, Release Rate", "setting": "[3]; 0.9% saline, day 7", "value": 457, "unit": "µg/day"},
      {"measurement": "In Vitro Release of Testosterone-17-propionate, Release Rate", "setting": "[3]; 0.9% saline, day 13", "value": 527, "unit": "µg/day"},
      {"measurement": "In Vitro Release of Testosterone-17-propionate, Release Rate", "setting": "[3]; 0.9% saline, day 14", "value": 587, "unit": "µg/day"},
      {"measurement": "In Vitro Release of Testosterone-17-propionate, Release Rate", "setting": "[3]; 0.9% saline, day 19", "value": 585, "unit": "µg/day"},
      {"measurement": "In Vitro Release of Testosterone-17-propionate, Release Rate", "setting": "[3]; 0.9% saline, day 20", "value": 663, "unit": "µg/day"},
      {"measurement": "In Vitro Release of Testosterone-17-propionate, Release Rate", "setting": "[3]; 0.9% saline, day 26", "value": 637, "unit": "µg/day"},
      {"measurement": "lag phase of in vitro release", "setting": "[3]; Example 5 ring, freshly made, 0.9% saline", "value": 13, "unit": "days"},
      {"measurement": "in vitro release pattern", "setting": "[3]; Example 5 ring, 0.9% saline, 13 day monitoring after the lag phase", "value": "substantially zero order pattern"},
      {"measurement": "amounts released compared with testosterone", "setting": "[3]; intravaginal rings, high dose applications", "value": "amounts released are greater"}
    ]},
    {"smiles": "C[C@]12CC[C@H]3[C@@H](CCC4=CC(=O)CC[C@@]43C)[C@@H]1CC[C@@H]2O", "note": "[testosterone]", "values": [
      {"measurement": "testosterone delivered per day", "setting": "[4]; matrix (non-rate controlled) transdermal system, per day", "value": "about 1000 μg"},
      {"measurement": "mean circulating plasma testosterone levels", "setting": "[4]; matrix transdermal system delivering about 1000 μg per day", "value": "4 to 6", "unit": "nM"},
      {"measurement": "in vitro release pattern", "setting": "[5]", "value": "substantially zero order release"},
      {"measurement": "In vitro release into 0.9% saline (as total testosterone)", "setting": "[1]; ring core length 30 mm, day 2", "value": 270, "unit": "µg/day"},
      {"measurement": "In vitro release into 0.9% saline (as total testosterone)", "setting": "[1]; ring core length 30 mm, day 3", "value": 232, "unit": "µg/day"},
      {"measurement": "In vitro release into 0.9% saline (as total testosterone)", "setting": "[1]; ring core length 30 mm, day 5", "value": 237, "unit": "µg/day"},
      {"measurement": "In vitro release into 0.9% saline (as total testosterone)", "setting": "[1]; ring core length 30 mm, day 8", "value": 228, "unit": "µg/day"},
      {"measurement": "In vitro release into 0.9% saline (as total testosterone)", "setting": "[1]; ring core length 30 mm, day 9", "value": 229, "unit": "µg/day"},
      {"measurement": "In vitro release into 0.9% saline (as total testosterone)", "setting": "[1]; ring core length 30 mm, day 10", "value": 226, "unit": "µg/day"},
      {"measurement": "In vitro release into 0.9% saline (as total testosterone)", "setting": "[1]; ring core length 30 mm, day 13", "value": 238, "unit": "µg/day"},
      {"measurement": "In vitro release into 0.9% saline (as total testosterone)", "setting": "[1]; ring core length 30 mm, day 15", "value": 227, "unit": "µg/day"},
      {"measurement": "In vitro release into 0.9% saline (as total testosterone)", "setting": "[1]; ring core length 30 mm, day 16", "value": 216, "unit": "µg/day"},
      {"measurement": "In vitro release into 0.9% saline (as total testosterone)", "setting": "[1]; ring core length 30 mm, day 17", "value": 224, "unit": "µg/day"},
      {"measurement": "In vitro release into 0.9% saline (as total testosterone)", "setting": "[1]; ring core length 60 mm, day 2", "value": 471, "unit": "µg/day"},
      {"measurement": "In vitro release into 0.9% saline (as total testosterone)", "setting": "[1]; ring core length 60 mm, day 3", "value": 401, "unit": "µg/day"},
      {"measurement": "In vitro release into 0.9% saline (as total testosterone)", "setting": "[1]; ring core length 60 mm, day 5", "value": 419, "unit": "µg/day"},
      {"measurement": "In vitro release into 0.9% saline (as total testosterone)", "setting": "[1]; ring core length 60 mm, day 8", "value": 400, "unit": "µg/day"},
      {"measurement": "In vitro release into 0.9% saline (as total testosterone)", "setting": "[1]; ring core length 60 mm, day 9", "value": 407, "unit": "µg/day"},
      {"measurement": "In vitro release into 0.9% saline (as total testosterone)", "setting": "[1]; ring core length 60 mm, day 10", "value": 406, "unit": "µg/day"},
      {"measurement": "In vitro release into 0.9% saline (as total testosterone)", "setting": "[1]; ring core length 60 mm, day 13", "value": 430, "unit": "µg/day"},
      {"measurement": "In vitro release into 0.9% saline (as total testosterone)", "setting": "[1]; ring core length 60 mm, day 15", "value": 408, "unit": "µg/day"},
      {"measurement": "In vitro release into 0.9% saline (as total testosterone)", "setting": "[1]; ring core length 60 mm, day 16", "value": 392, "unit": "µg/day"},
      {"measurement": "In vitro release into 0.9% saline (as total testosterone)", "setting": "[1]; ring core length 60 mm, day 17", "value": 388, "unit": "µg/day"},
      {"measurement": "In vitro release into 0.9% saline (as total testosterone)", "setting": "[1]; ring core length 90 mm, day 2", "value": 696, "unit": "µg/day"},
      {"measurement": "In vitro release into 0.9% saline (as total testosterone)", "setting": "[1]; ring core length 90 mm, day 3", "value": 572, "unit": "µg/day"},
      {"measurement": "In vitro release into 0.9% saline (as total testosterone)", "setting": "[1]; ring core length 90 mm, day 5", "value": 588, "unit": "µg/day"},
      {"measurement": "In vitro release into 0.9% saline (as total testosterone)", "setting": "[1]; ring core length 90 mm, day 8", "value": 592, "unit": "µg/day"},
      {"measurement": "In vitro release into 0.9% saline (as total testosterone)", "setting": "[1]; ring core length 90 mm, day 10", "value": 581, "unit": "µg/day"},
      {"measurement": "In vitro release into 0.9% saline (as total testosterone)", "setting": "[1]; ring core length 90 mm, day 13", "value": 623, "unit": "µg/day"},
      {"measurement": "In vitro release into 0.9% saline (as total testosterone)", "setting": "[1]; ring core length 90 mm, day 15", "value": 595, "unit": "µg/day"},
      {"measurement": "In vitro release into 0.9% saline (as total testosterone)", "setting": "[1]; ring core length 90 mm, day 16", "value": 584, "unit": "µg/day"},
      {"measurement": "In vitro release into 0.9% saline (as total testosterone)", "setting": "[1]; ring core length 90 mm, day 17", "value": 612, "unit": "µg/day"},
      {"measurement": "sink conditions in 0.9% saline", "setting": "[1]", "value": "‘Sink conditions’ were evident"},
      {"measurement": "in vitro release pattern", "setting": "[6]", "value": "substantially zero order pattern"}
    ]}
  ]
}
